# Source: patent US8278069B2, “Identification of a β-1,3-N-acetylgalactosaminyltransferase (CGTE) from Campylobacter jejuni LIO87” (National Research Council of Canada, priority 2005, dated 2012)
# How the values were obtained:
# CgtE = experiment: Characterization of CgtE enzymatic activity (pH, divalent cations, truncation); assay type: biochemical, Campylobacter jejuni LIO87; conditions: divalent cations necessary for activity
# From the text: CgtE enzymatic activity was characterized further. CgtE activity was optimal from pH 7 to 7.5.
# CgtE (CJL-107) = experiment: Substrate specificity of CgtE (CJL-107), acceptor and donor substrates; assay type: biochemical, Campylobacter jejuni LIO87; conditions: for Activity: enzyme CgtE (CJL-107)
# CgtE (CJL-107), sequence (as listed by the source): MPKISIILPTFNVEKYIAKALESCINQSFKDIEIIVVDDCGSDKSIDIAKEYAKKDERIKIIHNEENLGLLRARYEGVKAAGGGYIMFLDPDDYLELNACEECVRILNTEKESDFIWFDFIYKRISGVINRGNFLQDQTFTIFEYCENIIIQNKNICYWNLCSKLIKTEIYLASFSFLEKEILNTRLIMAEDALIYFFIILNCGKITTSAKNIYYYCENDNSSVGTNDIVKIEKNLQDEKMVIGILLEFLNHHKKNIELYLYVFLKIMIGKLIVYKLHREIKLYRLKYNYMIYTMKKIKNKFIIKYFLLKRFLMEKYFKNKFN
# From the text: A nucleic acid encoding a CgtE polypeptide, or a subsequence thereof, can be characterized by assaying for the expressed product. Assays based on the detection of the physical, chemical, or immunological properties of the expressed protein can be used. For example, one can identify a cloned CgtE nucleic acid B, by the ability of a protein encoded by the nucleic acid to catalyze the transfer of a galactose moiety from a donor substrate to an acceptor substrate. In one method, capillary electrophoresis is employed to detect the reaction products. This highly sensitive assay involves using either saccharide or disaccharide aminophenyl derivatives which are labeled with fluorescein as described in Wakarchuk et al. (1996) J. Biol. Chem. 271 (45): 28271-276. To assay for CgtE activity, Galα-Lac-FCHASE or GalNAc-α-FCHASE is used as a substrate. The reaction products of other glycosyltransferases can be detected using capillary electrophoresis, e.g., to assay for a Neisseria lgtC enzyme, either FCHASE-AP-Lac or FCHASE-AP-Gal can be used, whereas for the Neisseria lgtB enzyme an appropriate reagent is FCHASE-AP-GlcNAc (Wakarchuk, supra). To assay for α2,8-sialyltransferase, GM3-FCHASE is used as a substrate. See, e.g., U.S. Pat. No. 6,503,744, which is herein incorporated by reference. Other methods for detection of oligosaccharide reaction products include thin layer chromatography and GC/MS and are disclosed in U.S. Pat. No. 6,503,744, which is herein incorporated by reference.
# CgtE used both Galα-Lac-FCHASE and GalNAc-α-FCHASE as acceptor substrate. CgtE enzymatic activity was higher when Galα-Lac-FCHASE was used as the acceptor substrate.
compound,measurement,setting,value
[Cl][Mn][Cl] [MnCl2],CgtE activity with divalent cation relative to MgCl2,CgtE,two-fold higher
Galα-Lac-FCHASE,"CgtE enzymatic activity, comparison of acceptor substrates",CgtE (CJL-107); Galα-Lac-FCHASE versus GalNAc-α-FCHASE as acceptor,higher
same,Activity,CgtE (CJL-107); donor UDP-Gal,7.0 mU/mL
same,Activity,CgtE (CJL-107); donor UDP-GalNAc,63.5 mU/mL
GalNAc-α-FCHASE,Activity,CgtE (CJL-107); donor UDP-Gal,0.6 mU/mL
same,Activity,CgtE (CJL-107); donor UDP-GalNAc,0.3 mU/mL
